Our source for the TGI values is PubChem BioAssay (NCI).

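Each compound was tested at five concentrations against cells in 96-well plates for 48 hours. TGI: concentration producing complete growth inhibition.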 A value given as a limit tells only on which side of the number the result lay.

In the first test the test system is CCRF-CEM leukemia. In words: DTP human tumour cell line panel, 48 h.
Turning to `Cc1cccc(/C=N/NC(=S)Nc2ccccc2)n1`, the TGI (as a rule, the concentration at which net growth stops) is over 23.3 µM.

Turning to `Oc1ccc(-c2nc(-c3cccnc3)c(-c3ccc(F)cc3)[nH]2)cc1`, the TGI was 42.1 µM.

As to `CCC1(O)CC2CC(=O)OC2C1O` (stereo unspecified), the TGI was 25.7 µM.

`CC(C)/C(Cl)=N\OC(=O)Nc1ccc(S(N)(=O)=O)cc1`: the TGI is 6.49 µM.

For the compound `NC(=O)C(c1ccccc1)N1OC2C(=O)N(c3ccccc3)C(=O)C2C1c1c2ccccc2c(Cl)c2ccccc12` (stereo unspecified), the TGI was over 100 µM.

With `N#CC1=C(N)N(c2ccccc2)C(c2ccco2)C1(C#N)C#N` (stereo unspecified), the TGI was 43.9 µM.

In the case of `COC(=O)[C@H]1CO[C@@H](C(C)(C)C)N1C(=O)N1C=CC(=O)C[C@@H]1C`, the TGI is over 100 µM.

Take `N=c1n(C(=O)N2CCCC2)c2cc(Cl)ccc2n1C1=NCCN1`: the TGI was over 100 µM.

For `COc1c(C)c(C/C=C(\C)CCCCO[Si](c2ccccc2)(c2ccccc2)C(C)(C)C)c(OC)c(OC)c1OC`, the total growth inhibition concentration (TGI) is over 46.4 µM.

For `CC(C)CC(=O)OC[n+]1ccc(-c2c(COC(=O)NC(C)C)c(COC(=O)NC(C)C)c3n2CCC3)cc1`, the TGI is over 100 µM.

As to `O=[N+]([O-])C(=C1NCCN1)/C(Cl)=C(\Cl)Br`, the concentration for total growth inhibition (TGI) was found to be 28.5 µM.

In the next test the test system is SK-MEL-2 melanoma. Nature of the test: DTP human tumour cell line panel, 48 h.
As to `Cc1cccc(/C=N/NC(=S)Nc2ccccc2)n1`, the TGI was determined as 36 µM.

As for `Oc1ccc(-c2nc(-c3cccnc3)c(-c3ccc(F)cc3)[nH]2)cc1`, the concentration for total growth inhibition (TGI) is 34.6 µM.

Take `CCC1(O)CC2CC(=O)OC2C1O` (stereo unspecified): the TGI is over 100 µM.

Take `CC(C)/C(Cl)=N\OC(=O)Nc1ccc(S(N)(=O)=O)cc1`: the TGI was 34.1 µM.

The compound `NC(=O)C(c1ccccc1)N1OC2C(=O)N(c3ccccc3)C(=O)C2C1c1c2ccccc2c(Cl)c2ccccc12` (stereo unspecified) returned a TGI of over 100 µM.

`N#CC1=C(N)N(c2ccccc2)C(c2ccco2)C1(C#N)C#N` (stereo unspecified) came in with a TGI of 59.4 µM.

Compound `COC(=O)[C@H]1CO[C@@H](C(C)(C)C)N1C(=O)N1C=CC(=O)C[C@@H]1C` registered a concentration for total growth inhibition (TGI) of over 100 µM.

The compound `N=c1n(C(=O)N2CCCC2)c2cc(Cl)ccc2n1C1=NCCN1` registered a concentration for total growth inhibition (TGI) of over 100 µM.

Take `COc1c(C)c(C/C=C(\C)CCCCO[Si](c2ccccc2)(c2ccccc2)C(C)(C)C)c(OC)c(OC)c1OC`: the TGI is over 100 µM.

As to `CC(C)CC(=O)OC[n+]1ccc(-c2c(COC(=O)NC(C)C)c(COC(=O)NC(C)C)c3n2CCC3)cc1`, the TGI is over 100 µM.

`O=[N+]([O-])C(=C1NCCN1)/C(Cl)=C(\Cl)Br` had a concentration for total growth inhibition (TGI) of over 100 µM.

The subject of a further test is SK-MEL-28 melanoma. In words: DTP human tumour cell line panel, 48 h.
As for `Cc1cccc(/C=N/NC(=S)Nc2ccccc2)n1`, the concentration for total growth inhibition (TGI) was over 100 µM.

For the compound `Oc1ccc(-c2nc(-c3cccnc3)c(-c3ccc(F)cc3)[nH]2)cc1`, the TGI stood at 35.9 µM.

In turn, `CCC1(O)CC2CC(=O)OC2C1O` (stereo unspecified) registered a concentration for total growth inhibition (TGI) of over 100 µM.

Regarding `CC(C)/C(Cl)=N\OC(=O)Nc1ccc(S(N)(=O)=O)cc1`, the concentration for total growth inhibition (TGI) was 31.3 µM.

In the case of `NC(=O)C(c1ccccc1)N1OC2C(=O)N(c3ccccc3)C(=O)C2C1c1c2ccccc2c(Cl)c2ccccc12` (stereo unspecified), the total growth inhibition concentration (TGI) was over 100 µM.

In turn, `N#CC1=C(N)N(c2ccccc2)C(c2ccco2)C1(C#N)C#N` (stereo unspecified) showed a TGI of 38.9 µM.

Take `COC(=O)[C@H]1CO[C@@H](C(C)(C)C)N1C(=O)N1C=CC(=O)C[C@@H]1C`: the TGI is over 100 µM.

Turning to `N=c1n(C(=O)N2CCCC2)c2cc(Cl)ccc2n1C1=NCCN1`, the TGI is over 100 µM.

In turn, `COc1c(C)c(C/C=C(\C)CCCCO[Si](c2ccccc2)(c2ccccc2)C(C)(C)C)c(OC)c(OC)c1OC` came in with a TGI of over 100 µM.

In turn, `CC(C)CC(=O)OC[n+]1ccc(-c2c(COC(=O)NC(C)C)c(COC(=O)NC(C)C)c3n2CCC3)cc1` returned a TGI of over 100 µM.

Compound `O=[N+]([O-])C(=C1NCCN1)/C(Cl)=C(\Cl)Br` registered a TGI of over 77.7 µM.

In another test the test system is SW-620 colon. Nature of the test: DTP human tumour cell line panel, 48 h.
Compound `Cc1cccc(/C=N/NC(=S)Nc2ccccc2)n1` had a total growth inhibition concentration (TGI) of over 100 µM.

As for `Oc1ccc(-c2nc(-c3cccnc3)c(-c3ccc(F)cc3)[nH]2)cc1`, the total growth inhibition concentration (TGI) came out at 35.5 µM.

On to `CCC1(O)CC2CC(=O)OC2C1O` (stereo unspecified), for which the TGI was over 100 µM.

`CC(C)/C(Cl)=N\OC(=O)Nc1ccc(S(N)(=O)=O)cc1` showed a TGI of 3.41 µM.

On to `NC(=O)C(c1ccccc1)N1OC2C(=O)N(c3ccccc3)C(=O)C2C1c1c2ccccc2c(Cl)c2ccccc12` (stereo unspecified), for which the total growth inhibition concentration (TGI) was over 100 µM.

Take `N#CC1=C(N)N(c2ccccc2)C(c2ccco2)C1(C#N)C#N` (stereo unspecified): the TGI stood at 39.2 µM.

As to `COC(=O)[C@H]1CO[C@@H](C(C)(C)C)N1C(=O)N1C=CC(=O)C[C@@H]1C`, the total growth inhibition concentration (TGI) was over 100 µM.

On to `N=c1n(C(=O)N2CCCC2)c2cc(Cl)ccc2n1C1=NCCN1`, for which the total growth inhibition concentration (TGI) is over 100 µM.

`COc1c(C)c(C/C=C(\C)CCCCO[Si](c2ccccc2)(c2ccccc2)C(C)(C)C)c(OC)c(OC)c1OC` returned a TGI of over 46.4 µM.

Consider `CC(C)CC(=O)OC[n+]1ccc(-c2c(COC(=O)NC(C)C)c(COC(=O)NC(C)C)c3n2CCC3)cc1`, for which the TGI is over 100 µM.

In turn, `O=[N+]([O-])C(=C1NCCN1)/C(Cl)=C(\Cl)Br` had a TGI of 27.2 µM.

In a further test the test system is MDA-N. In words: DTP human tumour cell line panel, 48 h.
Regarding `Cc1cccc(/C=N/NC(=S)Nc2ccccc2)n1`, the TGI is over 100 µM.

The compound `Oc1ccc(-c2nc(-c3cccnc3)c(-c3ccc(F)cc3)[nH]2)cc1` returned a TGI of 37.5 µM.

Take `CCC1(O)CC2CC(=O)OC2C1O` (stereo unspecified): the concentration for total growth inhibition (TGI) was over 100 µM.

`CC(C)/C(Cl)=N\OC(=O)Nc1ccc(S(N)(=O)=O)cc1` showed a total growth inhibition concentration (TGI) of 32.9 µM.

Take `NC(=O)C(c1ccccc1)N1OC2C(=O)N(c3ccccc3)C(=O)C2C1c1c2ccccc2c(Cl)c2ccccc12` (stereo unspecified): the total growth inhibition concentration (TGI) is over 100 µM.

`N#CC1=C(N)N(c2ccccc2)C(c2ccco2)C1(C#N)C#N` (stereo unspecified): the TGI is over 100 µM.

`COC(=O)[C@H]1CO[C@@H](C(C)(C)C)N1C(=O)N1C=CC(=O)C[C@@H]1C` showed a total growth inhibition concentration (TGI) of over 100 µM.

Take `N=c1n(C(=O)N2CCCC2)c2cc(Cl)ccc2n1C1=NCCN1`: the TGI is over 100 µM.

As to `COc1c(C)c(C/C=C(\C)CCCCO[Si](c2ccccc2)(c2ccccc2)C(C)(C)C)c(OC)c(OC)c1OC`, the total growth inhibition concentration (TGI) is over 46.4 µM.

Regarding `CC(C)CC(=O)OC[n+]1ccc(-c2c(COC(=O)NC(C)C)c(COC(=O)NC(C)C)c3n2CCC3)cc1`, the concentration for total growth inhibition (TGI) is over 100 µM.

For `O=[N+]([O-])C(=C1NCCN1)/C(Cl)=C(\Cl)Br`, the TGI is over 100 µM.

The next test relates to SR leukemia. Nature of the test: DTP human tumour cell line panel, 48 h.
For the compound `Cc1cccc(/C=N/NC(=S)Nc2ccccc2)n1`, the TGI is over 100 µM.

In turn, `Oc1ccc(-c2nc(-c3cccnc3)c(-c3ccc(F)cc3)[nH]2)cc1` had a concentration for total growth inhibition (TGI) of 85 µM.

For the compound `CCC1(O)CC2CC(=O)OC2C1O` (stereo unspecified), the concentration for total growth inhibition (TGI) is over 100 µM.

Compound `CC(C)/C(Cl)=N\OC(=O)Nc1ccc(S(N)(=O)=O)cc1` displayed a total growth inhibition concentration (TGI) of 5.17 µM.

Take `NC(=O)C(c1ccccc1)N1OC2C(=O)N(c3ccccc3)C(=O)C2C1c1c2ccccc2c(Cl)c2ccccc12` (stereo unspecified): the total growth inhibition concentration (TGI) was over 100 µM.

Compound `N#CC1=C(N)N(c2ccccc2)C(c2ccco2)C1(C#N)C#N` (stereo unspecified) yielded a TGI of 51.1 µM.

As for `COC(=O)[C@H]1CO[C@@H](C(C)(C)C)N1C(=O)N1C=CC(=O)C[C@@H]1C`, the TGI is over 100 µM.

In turn, `N=c1n(C(=O)N2CCCC2)c2cc(Cl)ccc2n1C1=NCCN1` had a total growth inhibition concentration (TGI) of over 100 µM.

`COc1c(C)c(C/C=C(\C)CCCCO[Si](c2ccccc2)(c2ccccc2)C(C)(C)C)c(OC)c(OC)c1OC`: the TGI is over 46.4 µM.

For `CC(C)CC(=O)OC[n+]1ccc(-c2c(COC(=O)NC(C)C)c(COC(=O)NC(C)C)c3n2CCC3)cc1`, the concentration for total growth inhibition (TGI) was over 100 µM.

The compound `O=[N+]([O-])C(=C1NCCN1)/C(Cl)=C(\Cl)Br` showed a total growth inhibition concentration (TGI) of 55.4 µM.
